Data set [1] relates to O. ochengi mf. Description: O. ochengi microfilariae motility assay. Format: cell-based, Onchocerca ochengi. The method, then:
(§1) To assess the effects of the compounds on O. ochengi mf, the mf were harvested from infected cow skin and cultured (10–15 mf per well) in 100 µL media in 96-well plates with a confluent feeder layer of monkey kidney epithelial cells (MK2) as previously described. […] All compounds were also counter-screened with L. loa mf collected from infected individuals with approval from the University of Buea (IRB approval # 964-19). Mf were separated from blood cells using a Percoll gradient as previously described and set up for assays (10–15 mf per well).

Data set [2] relates to O. ochengi adult males. Description: O. ochengi adult male motility assay. The format is cell-based. Conditions: Onchocerca ochengi, 120 h; read-out: O. ochengi Adult Males Inhibition of Motility Day 5 IC50. An excerpt:
(§2) As humans are the only hosts for O. volvulus which are unavailable for screening, drug discovery relies on the surrogate filarial parasites Brugia spp. and cattle Onchocerca spp. Prioritized compounds from the Brugia worm screens were further tested with female and male adult O. ochengi as well as O. ochengi and L. loa mf.
(§3) For these assays, O. ochengi adults were extracted from the subcutaneous nodules of infected cow skins purchased from the local slaughterhouse (Douala, Littoral Region, Cameroon) and incubated in 4 mL complete culture media comprised of RPMI-1640 (Sigma-Aldrich), 5% newborn calf serum, 200 units/mL penicillin, 200 μg/mL streptomycin and 2.5 μg/mL amphotericin B (Sigma-Aldrich) in 12-well plates overnight to validate sterility prior to the assays. Four to eight O. ochengi adult masses were treated individually the following day with a serial dilution of each compound, and controls were treated with 1% DMSO. While in culture, the male worms normally egress from the nodules into the surrounding media and thus can be monitored in parallel for motility. The O. ochengi adult masses were incubated at 37 °C with 5% CO2 for the duration of the assay. Male motility within each well was visually scored every day and over 5 days after compound addition, and female viability within the nodules was assessed by MTT after 7 days as previously described. The O. ochengi adult masses containing female worms were individually placed in wells of a 48-well plate with 0.5 mL of 0.5 mg/mL MTT in PBS and incubated at 37 °C for 30 min. Female viability was visually rated by the degree of formazan production (live worms have blue coloration) in the female worm within the treated nodule versus control worm masses. […] Prism 4.0 for Windows was used to calculate IC50s.

Data set [3] concerns Loa loa mf. Description: Loa loa microfilariae motility counter-screen. The settings on record: for inhibition at 10 µM: Loa loa, 120 h, Day 5. The format is cell-based. How it is done:
as §1
On the technique in general: The purpose of a counterscreen is to sort out artefacts and off-target activity.

The nature of data set [4]: Gerbil liver microsome stability assay. Format: in vitro ADME. The method, then: Microsomal stability was tested using 1 µM of each test compound in a 96-well plate containing 0.5 mg/mL gerbil liver microsomes, 1 mM NADPH and/or UDPGA with alamethicin in a buffer of 100 mM potassium phosphate with 3 mM magnesium chloride at pH 7.4. Verapamil was used as a positive control. Reactions were incubated at 37 °C, and 100% acetonitrile with 0.1% formic acid was added at 0, 15, 30 and 60 min timepoints to stop the reaction. Samples were then separated over a Waters Atlantis T3 dC18 reverse phase HPLC column with 0.1% formic acid in water and 0.1% formic acid in acetonitrile. Samples were analyzed using an AB Sciex API 4000 LC–MS/MS.

Data set [5] can be described thus: in vitro. Conditions: dog, MDCK-MDR1. The method, then: Permeability assays were conducted using 5 µM of each test compound with digoxin as a control. […] electrical resistance was used to verify the integrity of the MDCK-MDR1 monolayer. After compound addition, plates were incubated at 37 °C with 5% CO2 for 1 h. Samples were analyzed by LC–MS/MS and net flux ratio was calculated using basal-to-apical and apical-to-basal permeability.

The test system of data set [6] is O. ochengi adult females. Description: O. ochengi adult female viability (MTT) assay. Format: cell-based. Conditions: Onchocerca ochengi, 168 h; Day 7, MTT; read-out: O. ochengi Adult Females Inhibition of Survival Day 7 IC50.
Description: as §2
as §3, with “min.” for “min. Female viability was visually rated by the degree of formazan production (live worms have blue coloration) in the female worm within the treated nodule versus control worm masses.”

For data set [7], the system named is Brugia pahangi adult females. Description: In vitro motility assay with adult female Brugia pahangi (Worminator). Conditions: for IC50: read-out: Brugia Adult Females Inhibition of Motility Day 3 IC50.
The subject of data set [8] is O. volvulus pre-adult L5. Description: O. volvulus pre-adult (Ov L5) motility assay. The settings on record: for inhibition at 1 µM: Onchocerca volvulus. Format: cell-based, Onchocerca volvulus. The method, then: O. volvulus adult male and female worms, which can only be obtained from infected individuals, are not readily accessible for ex vivo studies. Moreover, since there is no small animal model that can maintain infections by O. volvulus, a recently developed in vitro system was used to evaluate the macrofilaricidal effects on pre-adult worms. All compounds except for 04 were tested in this O. volvulus pre-adult/L5 motility and viability assay.
(§4) Briefly, Ov L3 larvae were cultured to the pre-adult/L5 stage in vitro as described by Voronin et al., 2019 [45]. Once larvae reached the L5 stage (after at least 70 days in culture), 8–10 Ov L5 were moved to new transwell inserts in a 24-well plate containing 0.5 mL Ov L4-CMS media seeded with a 3 × 10^4/well Human Umbilical Vein Endothelial Cells (HUVEC) monolayer. Duplicate wells were treated with 1 and/or 10 µM of compound. Ov L5 were exposed to compounds for 14 days (exchanged 50% of media with fresh compound every two days) and then cultured with new media without compound, exchanging 50% of media every 2–3 days, up to day 36. Control Ov L5 were treated with 0.05% DMSO. Concentrations were chosen based on activity in the B. pahangi female motility assay. Motility was assessed visually and ranked on a 0–100% scale every 2–3 days over the course of the assay. At the end of the motility assay, Ov L5 viability was measured by 3-(4,5-dimethylthiazol-2-yl)-2,5-diphenyltetrazolium bromide (MTT) assay. Ov L5 were incubated with 0.1% MTT in PBS at 37 °C for 1 h then visually inspected for blue coloration indicating MTT reduction. Worms were considered dead if <50% of the worm was stained blue, and worms were considered alive if >50% of the worm was stained blue.

The subject of data set [9] is O. volvulus pre-adult L5. Description: Ov L5 viability by endpoint MTT assay. The format is cell-based, Onchocerca volvulus. The settings on record: 1 µM. The method, then:
as §4, with “Concentrations were chosen based on activity in the B. pahangi female motility assay.” left out

Data set [10] deals with Brugia pahangi. Description: Brugia pahangi/gerbil model of infection: worm and peritoneal mf counts at necropsy. Format: in vivo. How it is done: Male Mongolian gerbils 50–60 g, 5–7 weeks in age (Meriones unguiculatus, Charles River Laboratories International, Inc., Wilmington, MA, USA) were injected intraperitoneally (IP) with 200 third-larval stage B. pahangi and treated a minimum of 3 months later when larvae developed into adult worms.
Animals were given IP doses of 1 mg/kg once a day for 5 days based on in vivo studies by Jones et al., 2009 [14] and gerbil PK analyses. Compounds are light sensitive and were shielded from light during formulation. Animals were necropsied 13 weeks post-first dose, and peritoneal cavities were washed with 100 mL of PBS to collect adult worms and mf that had been released from female worms. Adult worms were separated by sex, counted, and processed for subsequent analyses. Mf from the peritoneal cavities were quantified by mixing peritoneal wash 9:1 (v/v) with 0.04% methylene blue:water and counted using an inverted microscope.
Worm burden, peritoneal mf counts, overnight mf sheds and qPCR data were analyzed using a Kruskal–Wallis test followed by Dunn’s multiple comparison. To determine significant differences in embryograms, a two-way ANOVA was conducted with a Dunnett’s multiple comparisons test, and significance levels were determined based on comparisons with vehicle treated animals. All statistical analyses were determined using Prism 8 version 8.2.0(272).

Data set [11] deals with O. volvulus pre-adult L5. Description: O. volvulus pre-adult (Ov L5) motility assay. Format: cell-based. Conditions: Onchocerca volvulus, 504 h; on Day 21; read-out: O. volvulus L5 Inhibition of Motility IC50.
The mark [12] stands for this setting: Onchocerca ochengi, 120 h, Day 5.
Setting [13] is: Day 36 @ 1 µM, 14 days drug then washout.
[14] abbreviates: gerbil, 1 mg/kg IP once a day for 5 days, necropsy 13 weeks post-first dose, mean (SEM).
Setting [15] is: gerbil, 1 mg/kg IP once a day for 5 days, necropsy 13 weeks post-first dose, mean (SEM), 1 mg/kg.

Where “and” joins values, the source holds several entries; their conditions need not be identical. Identical values can stand only once. Entries after “also recorded” stand apart in the source; their conditions may differ.

On to `Cc1cc(/C=C/c2ccc3ccccc3[n+]2C)c(C)n1-c1ccccc1.[I-]` [Analog 01, 2-[(E)-2-(2,5-dimethyl-1-phenyl-1H-pyrrol-3-yl)ethenyl]-1-methylquinolin-1-ium iodide], for which the “O. ochengi Mf Inhibition of Motility Day 5 @ 10 µM” value in [1] was “completely inhibited”. Also, the inhibition at 10 µM in data set [1] (setting [12]) and in data set [3] was 100% throughout. The IC50 stood at 0.96 µM in [2]; 0.79 µM in data set [6]; 0.008 µM in data set [7] (Brugia pahangi, 72 h). Moreover, in [3], the “Loa loa Mf Inhibition of Motility Day 5 @ 10 µM” value is reported as “completely inhibited”. In [4] (gerbil liver microsomes), this compound gave a CLint of 610.8 µL/min/mg Protein. In addition, the half-life at 1 µM in [4] (pH 7.4, 1 µM compound, 0.5 mg/mL microsomes, read-out: Gerbil Liver Microsome T1/2) turned out to be 2.3 min. In [5], the Papp A→B amounted to 0.1 ×10⁻⁶ cm/s. Further, the Papp B→A in data set [5] was determined as 61.3 ×10⁻⁶ cm/s. The “Brugia Adult Females Inhibition of Motility Day 3 @ 1 µM” value in data set [7] was found to be 99%. The “Brugia Adult Females Inhibition of Motility Day 3 IC50” value in data set [7] is “sub-micromolar range”. In addition, in data set [8] (setting [13]), the inhibition at 1 µM was > 90%. In addition, the “O. volvulus L5 % inhibition of viability Day 37 (MTT assay)” value in data set [9] is 87%.

As to `Cc1cc(/C=C/c2ccc3cc(N(C)C)ccc3[n+]2C)c(C)n1-c1ccccc1` [PVP, pyrvinium pamoate, reference compound], the “O. ochengi Mf Inhibition of Motility Day 5 @ 10 µM” value in [1] was “completely inhibited”. For the same compound, the inhibition at 10 µM in [1] (setting [12]) and in [3] was 100% in each case. The IC50 in data set [1] (setting [12]) is 0.3 µM; in data set [2], 0.11 µM; in data set [7] (Brugia pahangi, 72 h) it was 0.0003 µM; in data set [11] it was < 0.3 µM. Moreover, in data set [3], the “Loa loa Mf Inhibition of Motility Day 5 @ 10 µM” value is “completely inhibited”. Further, in data set [7], the “Brugia Adult Females Inhibition of Motility Day 3 @ 1 µM” value amounted to 82%. In addition, the inhibition at 1 µM in data set [7] (Brugia pahangi, 72 h, read-out: Brugia Adult Females Inhibition of Motility Day 3 @ 1 µM, 1 µM, Day 3) was > 70%; in [8] (336 h, Day 14 @ 1 µM) it was 100%; in [8] (setting [13]), > 90%. The “Brugia Adult Females Inhibition of Motility Day 3 IC50” value in data set [7] is “sub-micromolar range”. Also, the “Total female worms recovered from treated animals” value in data set [10] (gerbil, 1 mg/kg IP) is given as 1. For the same compound, the “Reduction of peritoneal mf numbers compared to control group” value in [10] (gerbil, 1 mg/kg IP once a day for 5 days, 13 weeks post-first dose) is reported as ~ 95%. Besides, in data set [10] (gerbil, 1 mg/kg IP once a day for 5 days, 13 weeks post-first dose, not statistically significant, 1 mg/kg), the “Reduction of adult worm numbers (worm burden) compared to control group” value was ~ 95% and 95%. In addition, the “Female worms per animal” value in data set [10] (setting [14]) was 0.1 (0.1). Further, the “Male worms per animal” value in [10] (setting [14]) is 0.7 (0.4). The “Adult worms per animal” value in [10] (setting [15]) was 0.9 and 0.9 (0.5). The “Mf per animal (peritoneal cavity)” value in data set [10] (setting [15]) is 10.4 × 10^3 and 10,429. Also, the “Total worms recovered from treated animals” value in [10] (n = 7 animals, vehicle total 148 worms (n = 8)) is 6 worms. In addition, the “Ov L5 fate during assay (in words)” value in data set [8] (1 µM, 14 days drug then washout) is reported as “dead by day 14; also recorded: did not recover”.

A word on the inhibition: it is how much of the control response was suppressed. In general, IC50 refers to the concentration at which inhibition is half-maximal. Usually Papp A→B stands for the apparent permeability from the apical to the basolateral side of a cell layer. The low end stands for slow passage, the high end for fast passage. By Papp B→A is commonly meant how fast a substance crosses the layer from the basolateral side.

For the origin of these results see PMC8880385 (Pharmaceuticals, 2022).
